# Results as given in ChEMBL document CHEMBL1800001, “Biophysical mapping of the adenosine A2A receptor” (J Med Chem, 2011).
# Legend:
# Adenosine receptor A2a [1] = target: T1, Adenosine receptor A2a (Homo sapiens, UniProt P29274); assay: Displacement of [3H]ZM241385 from stabilized human adenosine receptor A2a expressed in HEK293 cells followed by receptor capturing on Biocore chips by SPR method
# Adenosine receptor A2a [2] = target: T1, Adenosine receptor A2a; assay: Displacement of [3H]ZM241385 from wild type human adenosine receptor A2a expressed in HEK293 cells
# T1 sequence (P29274 whole entry, looked up): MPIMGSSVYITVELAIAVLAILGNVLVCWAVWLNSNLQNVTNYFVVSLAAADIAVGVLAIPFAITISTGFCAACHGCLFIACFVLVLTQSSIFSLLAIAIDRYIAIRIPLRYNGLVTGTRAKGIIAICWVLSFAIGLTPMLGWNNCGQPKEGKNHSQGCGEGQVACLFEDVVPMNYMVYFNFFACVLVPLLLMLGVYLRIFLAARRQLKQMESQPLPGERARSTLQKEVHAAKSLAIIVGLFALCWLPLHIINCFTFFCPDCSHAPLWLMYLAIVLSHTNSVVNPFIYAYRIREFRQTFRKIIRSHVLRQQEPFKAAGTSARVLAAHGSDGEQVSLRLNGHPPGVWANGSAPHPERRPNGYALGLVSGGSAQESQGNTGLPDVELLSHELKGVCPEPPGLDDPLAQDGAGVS
pKd (Adenosine receptor A2a [1]),pKi (Adenosine receptor A2a [2]),Structure (SMILES)
6,7.9,Nc1nc(-c2ccccc2O)nc(N2Cc3ccc(F)cc3C2)n1
7.9,9,CN1CCN(C(=O)c2cccc(-c3nc(N)nc(-c4ccccc4O)n3)c2)CC1
9.5,8.8,COCCOc1ccc(N2CCN(CCn3ncc4c3nc(N)n3nc(-c5ccco5)nc43)CC2)cc1 [PRELADENANT]
